# In US11203571B2, “Sulfonamides as modulators of sodium channels” (VERTEX PHARMACEUTICALS INCORPORATED, priority 2013, dated 2021):
# Experiments:
# human Nav1.8 = human Nav1.8 (Homo sapiens (Human), UniProt Q9Y5Y9); test: E-VIPR optical membrane potential assay with electrical stimulation; assay type: cell-based; settings: HEK cells expressing human Nav1.8
# Procedure, shortened: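 HEK cells expressing human Nav1.8 were loaded with CC2-DMPE (8 μM) and DiSBAC6(3) (2.5 μM), then given compound for 20-35 min at room temperature (0.625% DMSO). Cells received a 10-s current-controlled electrical stimulus. Response was the stimulated/baseline 460/580 nm emission ratio (Rf/Ri), with tetracaine (125 μM) as positive control.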
# [1] = Human liver microsome assay; assay type: in vitro ADME; settings: 1 uM substrate, 0.5 mg/mL liver microsome, 2 mM NADPH, 37° C., referenced against time zero control
# Procedure, shortened: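 Pooled human liver microsomes (0.5 mg/mL) with 1 uM substrate (0.2% DMSO), 2 mM NADPH, 0.1 M phosphate, shaken 30 min at 37° C. Quenched with cold acetonitrile; parent quantified by LC/MS/MS. Value is % substrate remaining at 30 min versus a time-zero control without NADPH.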
# Sequence of human Nav1.8 (Q9Y5Y9 whole entry): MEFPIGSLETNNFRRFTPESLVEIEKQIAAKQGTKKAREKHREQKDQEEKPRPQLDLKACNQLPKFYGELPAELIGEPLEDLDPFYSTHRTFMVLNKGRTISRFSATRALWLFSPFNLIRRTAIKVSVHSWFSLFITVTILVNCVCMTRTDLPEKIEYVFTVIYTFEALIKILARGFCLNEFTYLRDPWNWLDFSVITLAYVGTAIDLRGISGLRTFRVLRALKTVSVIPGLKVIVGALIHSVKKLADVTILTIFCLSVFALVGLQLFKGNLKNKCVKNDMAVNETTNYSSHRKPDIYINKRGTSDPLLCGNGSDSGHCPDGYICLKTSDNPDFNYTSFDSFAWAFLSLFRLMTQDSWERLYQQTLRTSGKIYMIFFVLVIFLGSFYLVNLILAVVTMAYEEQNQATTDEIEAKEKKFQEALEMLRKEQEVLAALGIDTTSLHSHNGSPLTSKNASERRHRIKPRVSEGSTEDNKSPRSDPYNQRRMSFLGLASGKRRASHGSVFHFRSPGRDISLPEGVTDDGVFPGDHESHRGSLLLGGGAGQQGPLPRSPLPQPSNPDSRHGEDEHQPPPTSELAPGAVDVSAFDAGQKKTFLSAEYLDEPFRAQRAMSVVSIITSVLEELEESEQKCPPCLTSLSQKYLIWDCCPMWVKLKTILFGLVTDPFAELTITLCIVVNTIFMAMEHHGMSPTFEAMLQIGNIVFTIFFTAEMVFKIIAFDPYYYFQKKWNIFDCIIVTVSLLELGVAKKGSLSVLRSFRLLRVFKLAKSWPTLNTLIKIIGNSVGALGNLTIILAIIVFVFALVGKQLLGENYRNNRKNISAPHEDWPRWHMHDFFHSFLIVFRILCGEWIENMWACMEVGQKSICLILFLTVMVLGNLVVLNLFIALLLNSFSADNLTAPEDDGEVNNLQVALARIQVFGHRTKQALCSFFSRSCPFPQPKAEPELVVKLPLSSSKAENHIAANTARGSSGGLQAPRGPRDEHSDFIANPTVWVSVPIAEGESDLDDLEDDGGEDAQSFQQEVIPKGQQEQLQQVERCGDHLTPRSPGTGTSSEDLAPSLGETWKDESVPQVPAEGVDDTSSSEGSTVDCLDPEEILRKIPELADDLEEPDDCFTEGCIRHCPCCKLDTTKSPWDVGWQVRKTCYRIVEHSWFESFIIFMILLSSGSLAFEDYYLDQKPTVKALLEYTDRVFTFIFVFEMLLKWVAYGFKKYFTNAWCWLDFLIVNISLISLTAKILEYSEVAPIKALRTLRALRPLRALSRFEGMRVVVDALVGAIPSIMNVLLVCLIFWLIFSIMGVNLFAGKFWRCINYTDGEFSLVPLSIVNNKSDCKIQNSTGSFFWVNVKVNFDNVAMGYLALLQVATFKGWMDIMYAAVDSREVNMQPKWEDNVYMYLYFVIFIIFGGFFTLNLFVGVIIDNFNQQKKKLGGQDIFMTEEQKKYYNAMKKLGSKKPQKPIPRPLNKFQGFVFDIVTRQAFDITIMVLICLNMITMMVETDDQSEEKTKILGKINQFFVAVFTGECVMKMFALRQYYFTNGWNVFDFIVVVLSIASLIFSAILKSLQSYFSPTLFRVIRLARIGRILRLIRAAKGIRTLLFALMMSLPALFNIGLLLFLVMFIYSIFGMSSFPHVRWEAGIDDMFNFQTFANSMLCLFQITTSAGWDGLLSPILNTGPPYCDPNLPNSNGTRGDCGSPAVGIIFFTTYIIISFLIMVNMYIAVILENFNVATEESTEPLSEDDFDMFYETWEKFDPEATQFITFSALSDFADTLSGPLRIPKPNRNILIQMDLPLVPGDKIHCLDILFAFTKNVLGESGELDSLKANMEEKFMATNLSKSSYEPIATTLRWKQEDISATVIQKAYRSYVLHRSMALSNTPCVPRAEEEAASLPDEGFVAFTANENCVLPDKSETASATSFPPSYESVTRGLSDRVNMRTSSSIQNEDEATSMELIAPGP
SMILES,IC50 (human Nav1.8) [nM],HLM: percent unchanged after 30 min [1] [%]
"COc1ccc(Oc2cc(Cl)cc(Cl)c2C(=O)Nc2cccc(S(N)(=O)=O)c2)c(F)c1 [Compound 99, 2,4-dichloro-6-(2-fluoro-4-methoxyphenoxy)-N-(3-sulfamoylphenyl)benzamide]",5,63
"COc1cc(F)ccc1Oc1cccc(C(F)(F)F)c1C(=O)Nc1cccc(S(N)(=O)=O)c1 [Compound 13, 2-(4-fluoro-2-methoxyphenoxy)-N-(3-sulfamoylphenyl)-6-(trifluoromethyl)benzamide]",2,78
"Cc1ccccc1Oc1cc(C(F)(F)F)ccc1C(=O)Nc1cccc(S(N)(=O)=O)c1 [Compound 47, N-(3-sulfamoylphenyl)-2-(o-tolyloxy)-4-(trifluoromethyl)benzamide]",14,100
"NS(=O)(=O)c1cccc(NC(=O)c2c(Oc3ccc(OC(F)(F)F)cc3)cccc2C(F)(F)F)c1 [Compound 60, N-(3-sulfamoylphenyl)-2-(4-(trifluoromethoxy)phenoxy)-6-(trifluoromethyl)benzamide]",9,92
"COc1ccc(Oc2cc(Cl)ccc2C(=O)Nc2cccc(S(N)(=O)=O)c2)c(OC)c1 [Compound 84, 4-chloro-2-(2,4-dimethoxyphenoxy)-N-(3-sulfamoylphenyl)benzamide]",13,82
